Positions count from the first letter of the chain named. Like-named read-outs stand apart in the source and are kept apart here.
Tests used:
[1] = target: T1, hRORγ LBD (Homo sapiens, UniProt P51449); assay: Thermal stability by nano differential scanning fluorimetry (nanoDSF); format: binding; settings: RORγ-LBD with 4 equiv ligand vs without ligand; mean ± SD
T1 construct: His tag (N, cleaved yes); made in house; host or cells: Escherichia coli BL21 DE3
T1 sequence (P51449 264-518): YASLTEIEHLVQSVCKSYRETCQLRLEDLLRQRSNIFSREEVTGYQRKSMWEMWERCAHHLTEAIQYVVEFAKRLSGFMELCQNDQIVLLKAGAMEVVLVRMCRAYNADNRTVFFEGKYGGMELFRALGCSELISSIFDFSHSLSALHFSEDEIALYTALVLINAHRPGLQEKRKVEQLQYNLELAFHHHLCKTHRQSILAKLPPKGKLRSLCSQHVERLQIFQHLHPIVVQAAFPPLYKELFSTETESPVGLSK
Protocol: Soluble proteins were purified on Ni Hitrap FFcrude column (Cytiva), followed by His tag removal by thrombin (MP Biomedicals) cleavage and by size exclusion chromatography on HiLoad Superdex200 column (Cytiva) equilibrated in 20 mM Tris-HCl pH 7.5, 150 mM NaCl, 1 mM TCEP (Hampton Research). Purity and homogeneity of the hRORγ LBD were assessed by SDS-PAGE. The purified protein was concentrated to 0.5–1.0 mg/mL with an Amicon Ultra 10 kDa MWCO. The aliquots of purified LBD were incubated with 4 equiv ligands or vehicle for thermal stability experiments.
Fluorescence-based thermal experiments were performed using a Prometheus NT.48 (NanoTemper Technologies, Germany) with grade standard capillaries containing 10 μL of RORγLBD with different ligands. […] NanoTemper PR. Stability Analysis v1.0.2 was used to fit the data and determine the melting temperatures Tm.

[2] = target: T2, Gal4-hRORγ (Homo sapiens, UniProt P51449); assay: Gal4-RORγ mammalian one-hybrid luciferase assay; format: cell-based; settings: HEK293 cells; for IC50: 18 h treatment, up to 5 μM
T2 construct: Encodes for a hRORγ-LBD:Gal4-DBD fusion protein; expressed in transfected cells; host or cells: HEK293
T2 sequence (P51449 269-508 limits assumed): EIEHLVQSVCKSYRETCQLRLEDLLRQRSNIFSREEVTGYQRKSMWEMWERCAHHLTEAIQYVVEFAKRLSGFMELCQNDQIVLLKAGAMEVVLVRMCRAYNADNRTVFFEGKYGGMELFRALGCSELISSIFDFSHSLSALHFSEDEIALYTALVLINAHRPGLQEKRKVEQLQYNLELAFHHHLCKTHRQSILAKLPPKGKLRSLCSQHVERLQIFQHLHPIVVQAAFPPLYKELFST
Protocol: (§1) For luciferase assays, 8 × 10^6 HEK293 cells were seeded on 150 mm cell culture dishes and incubated for 5 h. Afterward, cells were transfected with the calcium phosphate coprecipitation method using 5 μg of the nuclear receptor (Gal4-hRORγ or full-length human RORγ), 5 μg of a luciferase reporter (pTK-MH100 × 4-LUC for Gal4-hRORγ experiments or RORE-LUC for full-length human RORγ experiments) and 3 μg eGFP-N1 (for assessing transfection efficiency) plasmid DNA and incubated overnight. […] The medium was changed the following day, and cells were further incubated for another four to 5 h before trypsin/EDTA was added to detach them from the dishes. […] RLUs were normalized to relative fluorescence units (RFU) to account for differences in cell number and transfection efficiency and then normalized to the vehicle control. Results are expressed as fold activation relative to the vehicle control.
(§2) Concentration–response data were analyzed in GraphPad Prism version 10 by three-parameter logistic nonlinear regression, with the Hill slope constrained to a theoretical value of −1.0. An IC50 value was determined only for compounds yielding a statistically reliable fit. […] In these cases, only the maximal inhibition achieved at the highest tested concentration (I max(%) at 5 μM) is reported, calculated as follows: Imax(%)=(1−Bottom/Top)×100 (“top” = baseline activity measured at the lowest concentration, “bottom” = residual activity observed at the highest concentration, corresponding to the maximal inhibitory effect).

[3] = target: T3, Gal4-RORγ H479L (Homo sapiens, UniProt P51449, H479L); assay: Gal4-RORγ H479L mutant luciferase assay; settings: 5 μM
T3 sequence (P51449 269-508 H479L limits assumed): T2 sequence (P51449 269-508 limits assumed) with H211L
Protocol: Gal4-hRORγ H323A and H479L mutants were generated using the QuikChange Lightning Site-Directed Mutagenesis Kit according to the manufacturer’s instructions. Briefly, 10 ng template DNA (Gal4-hRORγ) was PCR-amplified with the respective mutagenic forward and reverse primers listed in Table S3, which were designed using the QuikChange Primer Design tool (https://www.agilent.com/store/primerDesignProgram.jsp). […] Two μL of the PCR product were then transformed into XL1-Blue competent E. coli according to a protocol provided by NEB. […] After centrifuging the main culture at 5691g for 10 min, the supernatant was decanted, and plasmid preparation was performed using the PureLink HiPure Plasmid Midiprep Kit according to the manufacturer’s instructions. DNA yields and purities were checked using a NanoDrop 2000c (Thermo Fisher Scientific, Waltham, MA, USA).

[4] = target: T4, full-length human RORγ (Homo sapiens, UniProt P51449); assay: Full-length RORγ luciferase assay (RORE-LUC reporter); format: cell-based
T4 construct: Encodes for the full-length human RORγ; expressed in transfected cells; host or cells: HEK293
T4 sequence (P51449 1-518): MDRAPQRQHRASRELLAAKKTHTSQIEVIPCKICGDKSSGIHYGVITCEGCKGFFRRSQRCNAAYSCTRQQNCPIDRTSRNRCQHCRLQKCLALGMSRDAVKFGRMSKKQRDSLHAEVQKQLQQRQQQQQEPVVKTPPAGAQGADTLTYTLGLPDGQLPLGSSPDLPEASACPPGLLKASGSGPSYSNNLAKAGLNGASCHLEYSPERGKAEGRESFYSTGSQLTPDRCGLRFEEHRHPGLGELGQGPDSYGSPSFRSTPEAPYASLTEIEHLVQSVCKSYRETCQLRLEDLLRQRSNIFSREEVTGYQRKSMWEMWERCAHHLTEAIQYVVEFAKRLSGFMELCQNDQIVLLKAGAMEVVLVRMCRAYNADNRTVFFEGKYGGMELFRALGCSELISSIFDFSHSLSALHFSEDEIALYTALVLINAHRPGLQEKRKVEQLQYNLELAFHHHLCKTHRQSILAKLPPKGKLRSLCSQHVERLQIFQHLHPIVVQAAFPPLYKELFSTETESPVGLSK
Protocol: as §1, §2

[5] = tested on: Il17a and Il17f (Il17a/f); assay: RT-qPCR of Il17a and Il17f in EL-4-mRORγt cells; format: cell-based, murine; settings: then 4.5-h PMA and ionomycin
Protocol: For RT-qPCR assays, 5 × 10^5 EL-4-mRORγt cells were seeded in 500 μL complete DMEM per well of a 24-well plate and treated with the vehicle control, the positive control, or the compounds of interest. After incubation for 20–24 h, cells were stimulated with Cell Activation Cocktail (PMA: 40.5 μM, ionomycin: 669.3 μM; 500X) for 4.5 h. Afterward, total RNA was isolated using the innuPREP RNA Mini Kit 2.0 according to the manufacturer’s instructions. According to the manufacturer’s instructions, 1 μg RNA was reverse-transcribed into cDNA using the High-Capacity cDNA Reverse Transcription Kit. RT-qPCR was performed using the Luna Universal qPCR Master Mix on a LightCycler 480 (Roche Diagnostics, Rotkreuz, Switzerland) according to the manufacturer’s instructions. […] Livak’s 2−ΔΔCt method was employed to determine the expression levels of RORγ target genes. This involved normalizing the target gene expression to the expression levels of the control gene 18s, followed by further normalization to the vehicle control.

[6] = tested on: RORγ; parameters: method as in numbers not given; settings: Figure 4, collected from the literature; ref numbers not given; cited from earlier work
[7] = pretreated 20–24 h at indicated concentrations

SMILES: C=C(C)[C@@H]1CC[C@]2(C(=O)O)CC[C@]3(C)[C@H](CC[C@@H]4[C@@]5(C)C/C(=C/c6cccc(I)c6)C(=O)C(C)(C)[C@@H]5CC[C@]43C)[C@@H]12 [Compound 15.2]
- ΔTm measured with nano differential scanning fluorimetry [1]: 2.2 ± 0.5 °C
- Imax(%) at 5 μM, Gal4-RORγ luciferase assay [2]: 58%
- IC50 [2]: 3.1 µM
- Activity on Gal4-RORγ H479L vs WT [3]: loss of activity
- Imax(%) at 5 μM, full-length RORγ luciferase assay ([4]; HEK293 cells): 55%
- Il17a/f expression [5, 7]: significant and concentration-dependent reduction

SMILES: C=C(C)[C@@H]1CC[C@]2(C(=O)O)CC[C@]3(C)[C@H](CC[C@@H]4[C@@]5(C)C/C(=C/c6ccccc6)C(=O)C(C)(C)[C@@H]5CC[C@]43C)[C@@H]12 [Compound 15.3]
- ΔTm measured with nano differential scanning fluorimetry [1]: 2.8 ± 0.2 °C
- Imax(%) at 5 μM, Gal4-RORγ luciferase assay [2]: 53%
- IC50 [2]: 2.7 µM
- Activity on Gal4-RORγ H479L vs WT [3]: loss of activity
- Imax(%) at 5 μM, full-length RORγ luciferase assay ([4]; HEK293 cells): 67%
- IC50 ([4]; HEK293 cells, 18 h treatment, up to 5 μM, read-out: IC50, full-length RORγ luciferase assay): > 5 µM
- IC50 ([4]; exceeds the highest concentration tested, only an estimate, read-out: Estimated IC50, full-length RORγ luciferase assay): 5.7 µM
- Il17a/f expression [5, 7]: significant and concentration-dependent reduction

SMILES: C=C(C)[C@@H]1CC[C@]2(C(=O)OC)CC[C@]3(C)[C@H](CC[C@@H]4[C@@]5(C)C/C(=C/c6ccco6)C(=O)C(C)(C)[C@@H]5CC[C@]43C)[C@@H]12 [Compound 15.4]
- ΔTm measured with nano differential scanning fluorimetry [1]: 1.1 ± 0.2 °C
- Imax(%) at 5 μM, Gal4-RORγ luciferase assay [2]: 0%
- Activity on Gal4-RORγ H479L vs WT [3]: remained inactive
- Imax(%) at 5 μM, full-length RORγ luciferase assay ([4]; HEK293 cells): 0%
- Il17a/f expression [5, 7]: slightly but significantly up-regulated

SMILES: C[C@@H]1CC[C@@]2(OC1)O[C@H]1C[C@H]3[C@@H]4CC=C5C[C@@H](O)CC[C@]5(C)[C@H]4CC[C@]3(C)[C@H]1[C@@H]2C [Diosgenin]
- RORγ inverse agonist or agonist [6]: Inverse agonist

SMILES: C=C(C)[C@@H]1CC[C@]2(C=O)CC[C@]3(C)[C@H](CC[C@@H]4[C@@]5(C)CC[C@H](O)C(C)(C)[C@@H]5CC[C@]43C)[C@@H]12 [Betulinaldehyde]
- RORγ inverse agonist or agonist [6]: Agonist

SMILES: COc1ccc(CC(=O)Nc2cc3oc4ccccc4c3cc2OC)cc1 [Compound 5]
- Activity in Gal4-RORγ luciferase assay (initial screen) ([2]; 3 μM): agonistic activity

SMILES: C[C@H]1[C@H](C)CC[C@]2(C(=O)O)CC[C@]3(C)C(=CC[C@@H]4[C@@]5(C)CCC(=O)C(C)(C)[C@@H]5CC[C@]43C)[C@H]12 [Ursonic acid]
- RORγ inverse agonist or agonist [6]: Inverse agonist

SMILES: C=C(C)[C@@H]1CC[C@]2(C(=O)NCCCN(C)C)CC[C@]3(C)[C@H](CC[C@@H]4[C@@]5(C)CC[C@H](O)C(C)(C)[C@@H]5CC[C@]43C)[C@@H]12 [Compound 24]
- RORγ inverse agonist or agonist [6]: Inverse agonist

SMILES: CC(C)=CCC[C@H](C)[C@H]1CC[C@H]2C3=C(CC[C@]12C)[C@@]1(C)CC[C@H](O)[C@@](C)(C(=O)O)C1CC3 (stereo partly drawn) [4α-carboxy-4β-methyl-zymosterol]
- RORγ inverse agonist or agonist [6]: Agonist

SMILES: C=C1C[C@]2(C)[C@H]3CC[C@@H]4[C@H]5[C@H](C(=C)C)CC[C@]5(C(=O)NCCCN(C)C)CC[C@@]4(C)[C@]3(C)CC[C@H]2C(C)(C)C1=O [Compound 25]
- RORγ inverse agonist or agonist [6]: Inverse agonist

SMILES: CC(C)CCC[C@H](CCCC(C)(C)O)[C@H]1CC[C@H]2[C@@H]3CC=C4C[C@@H](O)CC[C@]4(C)[C@H]3CC[C@]12C [Gemini-cholesterol analogue]
- RORγ inverse agonist or agonist [6]: Inverse agonist

SMILES: OC(c1ccc(-c2ccc(CN3CCN(Cc4ccncc4)CC3)cc2)c(F)c1)(C(F)(F)F)C(F)(F)F [SR2211, reference compound]
- Il17a/f expression ([5]; 5 μM, 20–24 h): significant and reproducible down-regulation

SMILES: C=C(C)[C@@H]1CC[C@]2(C(=O)O)CC[C@]3(C)[C@H](CC[C@@H]4[C@@]5(C)C/C(=C\c6ccccc6OC)C(=O)C(C)(C)[C@@H]5CC[C@]43C)[C@@H]12 [Compound 15.1]
- ΔTm measured with nano differential scanning fluorimetry [1]: 5.9 ± 0.4 °C
- Imax(%) at 5 μM, Gal4-RORγ luciferase assay [2]: 34%
- Imax(%) at 5 μM, full-length RORγ luciferase assay ([4]; HEK293 cells): 24%
- Il17a/f expression [5, 7]: inactive

SMILES: C[C@H]1[C@H](C)CC[C@]2(C(=O)O)CC[C@]3(C)C(=CC[C@@H]4[C@@]5(C)CC[C@H](O)C(C)(C)[C@@H]5CC[C@]43C)[C@H]12 [Ursolic acid]
- RORγ inverse agonist or agonist [6]: Inverse agonist
